Laboratory results as given in paper PMC4685510, “A Cell Biologist’s Field Guide to Aurora Kinase Inhibitors” (Frontiers in Oncology, 2015).
“Also recorded” adds a separate entry of the source. Like-named read-outs stand apart in the source and are kept apart here.

Columns and labels:
U2OS cells [1] = assay: G2 duration live imaging assay (GFP-PCNA; H2B-RFP), U2OS; assay type: cell-based; conditions: Homo sapiens, read-out: G2/M (G2 duration) IC50
RPE1 cells [2] = assay: G2 duration live imaging assay (GFP-PCNA; H2B-RFP), RPE1; assay type: cell-based; conditions: Homo sapiens, RPE-1; RPE1; read-out: G2/M (G2 duration) IC50
[3] = tested on: pLATS2(Ser 83) in U2OS cells; assay: Substrate phosphorylation immunofluorescence assay, pLATS2(Ser 83), U2OS; assay type: cell-based, human; conditions: 8 h inhibitor treatment
Experimental: (§1) We employed the protocol described in Figure 3D to analyze substrate phosphorylation in HeLa cells following treatment with all 10 inhibitors in dose–response. Asynchronous cells were incubated with vehicle (DMSO) or different inhibitor doses for 8 h and then fixed and labeled with a mixture of three antibodies directed against pLATS2(Ser 83), pH3(Ser 28), and MPM2 [which detects mitotic phosphoepitopes; ([86])]. While both the anti-pLATS2(Ser 83) and MPM2 antibodies are mouse monoclonals, they are of different IgG subclasses [IgG2b for anti-pLATS2(Ser 83) and IgG1 for MPM2], and can thus be detected with subclass-specific secondary antibodies (Table S3 in Supplementary Material).
(§2) In control mitotic cells, pLATS2(Ser 83) is concentrated in foci around the spindle poles (Figure 3E; top row – green arrow) and pH3(Ser 28) is on the mitotic chromatin (Figure 3E; top row – red arrow). Selective kinase inhibition should result in loss of one signal but not the other, as illustrated by the example images for specific conditions in Figure 3E (middle and bottom rows). Cells were imaged in 4 channels to visualize pLATS2(Ser 83), pH3(Ser 28), MPM2, and DNA (labeled with Hoechst) and mitotic cells were segmented based on their bright MPM2 labeling (Figure 3E). Intensity and area thresholds were set to select the pLATS2(Ser 83) foci and the pH3(Ser 28)-labeled chromatin in their respective channels in DMSO-treated control cells and the same thresholds were applied for inhibitor-treated cells. The mean fluorescence intensity per pixel was measured to assess the activities of the kinases targeting these two substrate phosphorylation sites.
(§3) Twelve thousand HeLa cells, 10,000 U2OS cells, or 8,000 RPE1 cells were seeded into 96-well glass-bottom Sensoplates (Greiner) 16 h before inhibitor addition. Prior to seeding, the glass-bottom plates were coated with poly-L-lysine (Sigma). […] After 8 h cells were fixed with 4% PFA for 20 min at room temperature. The fixed cells were washed with PBS. For immunostaining, cells were permeabilized and blocked with PBS containing 10% normal donkey serum (Jackson ImmunoResearch) and 0.1% Triton-X100 for 1 h at room temperature. Primary antibodies against phospho-LATS2 (Ser 83), phospho-histone H3(Ser 28), and anti-phospho-MPM2 (see Table S3 in Supplementary Material) were incubated for 1 h at room temperature. […] Cells were then washed twice with PBS containing 0.1% Triton-X100. Image acquisition in four channels was performed using a CV7000 spinning disk confocal system (Yokogawa Electric Corporation) with a 40 × 0.95 NA U-PlanApo objective and 2560 × 2160 pixel sCMOS camera. […] Fifty fields per well were imaged with quadruplicate wells for each condition. Image analysis was done using the CV7000 image analysis software (Yokogawa Electric Corporation). Between 100 and 1,000 mitotic cells per condition were segmented applying object identification parameters to select for bright MPM2 labeling. Using a nuclear identifier protocol, minimum intensity thresholds were set for pLATS2(Ser 83) and the pH3(Ser 28) signals, and the resulting identified objects were eroded, dilated, and filtered for size by user-defined thresholds. For only the MPM2-positive mitotic cells, the mean fluorescence intensity of the identified pLATS2(Ser 83) and pH3(Ser 28) objects was measured, and the average intensity per cell per well was calculated. The same thresholds were applied for all of the inhibitor-treated samples, which were processed, imaged, and analyzed in parallel with control DMSO-treated cells. Data were fit using a four-parameter, variable slope fit in Prism (GraphPad). Primary and secondary antibody dilutions can be found in Table S3 in Supplementary Material.

Aurora A-TPX2 = conditions: ref 71; read-out: Aurora A-TPX2 Ki (Published); cited from earlier work
[4] = tested on: pH3(Ser 28) in HeLa cells; assay: Substrate phosphorylation immunofluorescence assay, pH3(Ser 28), HeLa; assay type: cell-based, human; conditions: for IC50: Homo sapiens, 8 h, read-out: pHistone H3 (Ser28) IC50
[5] = tested on: pH3(Ser 28) in RPE1 cells; assay: Substrate phosphorylation immunofluorescence assay, pH3(Ser 28), RPE1; assay type: cell-based, human; conditions: Homo sapiens, read-out: pHistone H3 (Ser28) IC50
[6] = tested on: pLATS2(Ser 83) in RPE1 cells; assay: Substrate phosphorylation immunofluorescence assay, pLATS2(Ser 83), RPE1; assay type: cell-based, human; conditions: RPE1, 8 h inhibitor treatment
Experimental: as §1, §2, §3

[7] = tested on: pLATS2(Ser 83) in HeLa cells; assay: Substrate phosphorylation immunofluorescence assay, pLATS2(Ser 83), HeLa; assay type: cell-based, human; conditions: HeLa; for IC50: Homo sapiens, 8 h, read-out: pLATS2 (Ser83) IC50
Experimental: as §1, §2, §3

HeLa cells [8] = assay: G2 duration live imaging assay (GFP-PCNA; H2B-RFP), HeLa; assay type: cell-based, human; conditions: Homo sapiens, read-out: G2/M (G2 duration) IC50
[9] = tested on: pH3(Ser 28) in U2OS cells; assay: Substrate phosphorylation immunofluorescence assay, pH3(Ser 28), U2OS; assay type: cell-based, human; conditions: Homo sapiens, read-out: pHistone H3 (Ser28) IC50
Aurora A = conditions: read-out: Aurora A IC50 (Published), cited from earlier work
HeLa cells [10] = assay: Cytokinesis assay (live imaging, YFP-α-tubulin; H2B-RFP), HeLa; assay type: cell-based, human; conditions: Homo sapiens, HeLa, read-out: Cytokinesis IC50
[11] = target: 363 human kinases (including Aurora A/B/C) (Homo sapiens, UniProt Q16539); assay: biochemical; assay type: biochemical; conditions: read-out: % Enzyme Activity (relative to DMSO controls)
Chain of 363 human kinases (including Aurora A/B/C) (Homo sapiens, UniProt Q16539) (Q16539 whole entry): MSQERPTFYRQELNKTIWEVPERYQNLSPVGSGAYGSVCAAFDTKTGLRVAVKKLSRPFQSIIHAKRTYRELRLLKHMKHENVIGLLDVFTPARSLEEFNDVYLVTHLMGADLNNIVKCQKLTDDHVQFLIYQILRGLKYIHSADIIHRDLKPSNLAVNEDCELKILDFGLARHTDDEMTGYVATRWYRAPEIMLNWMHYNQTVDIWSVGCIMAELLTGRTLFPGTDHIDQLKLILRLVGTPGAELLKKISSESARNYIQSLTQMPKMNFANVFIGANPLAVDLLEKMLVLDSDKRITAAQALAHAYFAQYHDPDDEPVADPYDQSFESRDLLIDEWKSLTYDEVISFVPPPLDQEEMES

[12] = tested on: 363 human kinases (including Aurora A/B/C); assay: biochemical; assay type: biochemical
[13] = tested on: HeLa, RPE1, and U2OS cells; assay: Cellular proliferation analysis (ATPLite, 24 h); conditions: HeLa, RPE1, U2OS; 24 h (Figure 4D, Figure S2B)
RPE1 cells [14] = assay: Cytokinesis assay (live imaging, YFP-α-tubulin; H2B-RFP), RPE1; assay type: cell-based; conditions: Homo sapiens, RPE-1, read-out: Cytokinesis IC50
[15] = tested on: pAuroraA(Thr 288) in HeLa cells; assay: Immunoblotting of Aurora A activation loop phosphorylation; assay type: cell-based, human; conditions: immunoblot
U2OS cells [16] = assay: Cytokinesis assay (live imaging, YFP-α-tubulin; H2B-RFP), U2OS; assay type: cell-based; conditions: Homo sapiens, read-out: Cytokinesis IC50
[17] = tested on: pAuroraB(Thr 232), pH3(Ser 10), pH3(Ser 28) in HeLa cells; assay: Immunoblotting of pAuroraB(Thr 232), pH3(Ser 28) and pH3(Ser 10); assay type: cell-based, human; conditions: immunoblot, dose–response

O=C(O)c1ccc(Nc2ncc3c(n2)-c2ccc(Cl)cc2C(c2c(F)cccc2F)=NC3)cc1 [MLN8054]
IC50 (U2OS cells [1]): 957 nM | IC50 (RPE1 cells [2]): 500 nM | IC50 ([3]; Homo sapiens, read-out: pLATS2 (Ser83) IC50): 800 nM | Ki (Aurora A-TPX2): 3.3 nM | IC50 ([4]; 8 h inhibitor treatment): 2900 nM | IC50 ([5]; RPE-1, RPE1, 8 h inhibitor treatment): 880 nM | IC50 ([6]; Homo sapiens, RPE-1, read-out: pLATS2 (Ser83) IC50): 720 nM | Specificity window (pLATS2(Ser 83) versus pH3(Ser 28)) [7]: 10 fold | IC50 ([7]; 8 h inhibitor treatment): 290 nM | IC50 (HeLa cells [8]): 736 nM | IC50 ([9]; 8 h inhibitor treatment): 3300 nM | IC50 (Aurora A; ref 48): […] | IC50 (Aurora A; ref 59): […]

Cc1cc(Nc2cc(N3CCN(C)CC3)nc(Sc3ccc(NC(=O)C4CC4)cc3)n2)[nH]n1 [VX-680]
IC50 ([4]; 8 h inhibitor treatment): 45 nM | IC50 ([7]; 8 h inhibitor treatment): 150 nM | IC50 (Aurora A; ref 119): […]

CCN(CCO)CCCOc1ccc2c(Nc3cc(CC(=O)Nc4cccc(F)c4)[nH]n3)ncnc2c1 [AZD1152-HQPA]
IC50 (HeLa cells [10]): 4 nM | remaining activity at 0.1 µM [11]: 104% | Kinases inhibited ≥65% of control [12]: Aurora B was the only enzyme | pLATS2 (Ser83) IC50 [3]: NE@200 nM | Toxicity / cytotoxicity (cellular proliferation) [13]: not observed | IC50 (RPE1 cells [14]): 23 nM | Concentration completely eliminating pH3(Ser 28) labeling without affecting pLATS2(Ser 83) labeling [4]: < 100 nM | IC50 [4]: 5 nM | Effect on Aurora A activity (pAuroraA Thr 288) ([15]; 300 nM (Figure S6)): did not | Effect on pAuroraA(Thr 288) ([15]; dose–response): did not affect | IC50 (U2OS cells [16]): 20 nM | Effect on pH3(Ser 10), pH3(Ser 28), pAuroraB(Thr 232) [17]: eliminated | IC50 ([5]; RPE-1, 8 h): 25 nM | pLATS2 (Ser83) IC50 [6]: NE@200 nM | pLATS2 (Ser83) IC50 ([7]; 8 h inhibitor treatment): NE (100 nM); also recorded: NE@100 nM | IC50 ([9]; 8 h): 12 nM
